Legend:
human S1P1 receptors = molecular target: T1, human S1P1 receptors (Homo sapiens, UniProt P21453); test: Human S1P1 Receptor Calcium FLIPR Antagonist Assay (HeLa Gα16 S1P1); assay type: cell-based; details: relative antagonism of Ca2+ signal evoked by probing agonist GNF-AC-1 at EC80; HeLa-S1P1/Gα16 cells
T1 construct: myc (N); expressed in transfected cells; host or cells: HeLa (human cervix carcinoma, ATCC CCL2), HeLa-S1P1/Gα16 cell clone 1
Procedure, shortened: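 HeLa Gα16 cells expressing S1P1 loaded for calcium fluorescence on FLIPR; compounds added in HBSS with 0.1% BSA, then agonist at EC80 20-30 min later. IC50 from (Fmax-Fmin)/Fmin versus log compound concentration.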

circulating lymphocytes = test: Measurement of Circulating Lymphocytes; assay type: in vivo, Rats (Lewis strain, male); details: Rattus norvegicus, Lymphocyte; male Lewis rats, 14 hours after oral 30 mg/kg, compared to vehicle-only group; mean±SEM; read-out: Residual Lymphocyte Counts 14 hours after 30 mg/kg p.o. dosing
Method: The compounds of formula (I) typically induce the depletion of blood lymphocyte as may be determined in the assay described below. Moreover, compounds of formula (I) are typically efficacious in the said assay also when administered via the per oral route of administration.
Measurement of Circulating Lymphocytes:
The test compounds (or salts thereof) are dissolved in a vehicle such as water, saline, PEG (polyethylene glycol) 200, or PBS (phosphate buffered saline). Rats (Lewis strain, male, 6-12 weeks old) are administered up to 100 mg/kg of the test compounds in 2 ml/kg vehicle via per oral or subcutaneous application. The vehicle or a reference salt and FTY720 (0.3 mg/kg) are included as negative and positive controls, respectively.
Blood is collected from the sublingual vein before and 2, 8 and 24 hours or 14, 18 and 24 hours after the test compound administration under short isoflurane anesthesia. Whole blood samples are subjected to hematology analysis. Peripheral lymphocyte counts are determined using an automated analyzer. The Haemathology System uses a combination of light scatter, cytochemical staining and nuclear density on two independent channels to measure the total and differential white cell counts. Two to four rats are used to assess the lymphocyte depletion activity of each compound screened. The data are presented as mean±SEM.

T1 sequence (P21453 whole entry): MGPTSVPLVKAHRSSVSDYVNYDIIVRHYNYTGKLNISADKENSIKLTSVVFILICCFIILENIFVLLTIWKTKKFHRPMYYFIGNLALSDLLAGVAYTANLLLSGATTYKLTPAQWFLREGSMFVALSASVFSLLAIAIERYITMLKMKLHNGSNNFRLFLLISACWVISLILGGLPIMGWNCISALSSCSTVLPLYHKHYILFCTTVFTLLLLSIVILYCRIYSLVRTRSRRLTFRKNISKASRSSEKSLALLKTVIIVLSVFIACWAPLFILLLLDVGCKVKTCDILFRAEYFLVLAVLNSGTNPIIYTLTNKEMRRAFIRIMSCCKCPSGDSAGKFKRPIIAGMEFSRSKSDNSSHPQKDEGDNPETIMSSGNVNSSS

| Structure (SMILES) | IC50 (human S1P1 receptors) [nM] | response vs control in vivo at 30 mg/kg (circulating lymphocytes) [%] |
| --- | --- | --- |
| Cc1cc([C@@H](C)Nc2cccc(-c3cc(C)c(C(=O)N(C)[C@@H](C)C(=O)O)c(C)c3)c2)ccc1Cl [Example 73] | 4 | 16.6 |
| Cc1cc(C(Nc2cccc(-c3cc(C)c(C(=O)N[C@@H](C)C(=O)O)c(C)c3)c2)C(F)(F)F)ccc1Cl (stereo partly drawn) [Example 74, (S)-2-({3′-[1-(4-Chloro-3-methyl-phenyl)-2,2,2-trifluoro-ethylamino]-3,5-dimethyl-biphenyl-4-carbonyl}-amino)-propionic acid] | 8 | 15.5 |
| Cc1cc(C(Nc2cccc(-c3cc(C)c(C(=O)N[C@@H](C)C(=O)O)c(C)c3)c2)C(F)F)ccc1Cl (stereo partly drawn) [Example 75, (S)-2-({3′-[1-(4-Chloro-3-methyl-phenyl)-2,2-difluoro-ethylamino]-3,5-dimethyl-biphenyl-4-carbonyl}-amino)-propionic acid] | 6 | 19.4 |
| Cc1cc(C(C)(C)Nc2cccc(-c3cc(C)c(C(=O)N[C@@H](C)C(=O)O)c(C)c3)c2)ccc1Cl [Example 82, (S)-2-({3′-[1-(4-Chloro-3-methyl-phenyl)-1-methyl-ethylamino]-3,5-dimethyl-biphenyl-4-carbonyl}-amino)-propionic acid] | 3 | 10.8 |
| Cc1cc(C(C)(C)Nc2cccc(-c3cc(C)c(C(=O)N(C)C4(C(=O)O)CC4)c(C)c3)c2)ccc1Cl [Example 85, 1-({3′-[1-(4-Chloro-3-methyl-phenyl)-1-methyl-ethylamino]-3,5-dimethyl-biphenyl-4-carbonyl}-methyl-amino)-cyclopropanecarboxylic acid] | 11 | 14.7 |
| Cc1cc(C(Nc2cccc(-c3cc(C)c(C(=O)N(C)[C@@H](C)C(=O)O)c(C)c3)c2)C(F)F)ccc1Cl (stereo partly drawn) [Example 103, (S)-2-({3′-[1-(4-Chloro-3-methyl-phenyl)-2,2-difluoro-ethylamino]-3,5-dimethyl-biphenyl-4-carbonyl}-methyl-amino)-propionic acid] | 3 | 13.9 |
| CC[C@H](c1ccc(Cl)c(C)c1)N(C)c1cccc(-c2cc(C)c(C(=O)N(C)[C@@H](C)C(=O)O)c(C)c2)c1 [Example 105, (S)-2-[(3′-{[(R)-1-(4-Chloro-3-methyl-phenyl)-propyl]-methyl-amino}-3,5-dimethyl-biphenyl-4-carbonyl)-methyl-amino]-propionic acid] | 10 | 20.9 |
| CC[C@H](c1ccc(Cl)c(C)c1)N(C)c1cccc(-c2cc(C)c(C(=O)NC3(C(=O)O)CC3)c(C)c2)c1 [Example 108, 1-[(3′-{[(R)-1-(4-Chloro-3-methyl-phenyl)-propyl]-methyl-amino}-3,5-dimethyl-biphenyl-4-carbonyl)-amino]-cyclopropanecarboxylic acid] | 8 | 19.6 |
| Cc1cc([C@H](Nc2cccc(-c3cc(C)c(C(=O)NC4(C(=O)O)CC4)c(C)c3)c2)C(F)(F)F)ccc1Cl [Example 112, 1-({3′-[(S)-1-(4-Chloro-3-methyl-phenyl)-2,2,2-trifluoro-ethylamino]-3,5-dimethyl-biphenyl-4-carbonyl}-amino)-cyclopropanecarboxylic acid] | 2 | 18.3 |
| CC[C@@H](Nc1ccc(F)c(-c2cc(C)c(C(=O)NC3(C(=O)O)CC3)c(C)c2)c1)c1ccc(Cl)c(C)c1 [Example 115, 1-({5′-[(R)-1-(4-Chloro-3-methyl-phenyl)-propylamino]-2′-fluoro-3,5-dimethyl-biphenyl-4-carbonyl}-amino)-cyclopropanecarboxylic acid] | 2 | 15.8 |
| CC[C@@H](Nc1ccc(F)c(-c2cc(C)c(C(=O)N(C)[C@@H](C)C(=O)O)c(C)c2)c1)c1ccc(Cl)c(C)c1 [Example 117, (S)-2-({5′-[(R)-1-(4-Chloro-3-methyl-phenyl)-propylamino]-2′-fluoro-3,5-dimethyl-biphenyl-4-carbonyl}-methyl-amino)-propionic acid] | 2 | 15 |

More lines, main results first:

| IC50 (human S1P1 receptors) [nM] | Structure (SMILES) | response vs control in vivo at 30 mg/kg (circulating lymphocytes) [%] |
| --- | --- | --- |
| 2 | CCC(Nc1ccc(F)c(-c2cc(C)c(C(=O)NC3(C(=O)O)CC3)c(C)c2)c1)c1ccc(Cl)c(C)c1 (stereo not shown) [Example 25, 1-({5′-[1-(4-Chloro-3-methyl-phenyl)-propylamino]-2′-fluoro-3,5-dimethyl-biphenyl-4-carbonyl}-amino)-cyclopropanecarboxylic acid] | 15 |
| 1 | Cc1cc(C(C)Nc2ccc(F)c(-c3cc(C)c(C(=O)NC4(C(=O)O)CC4)c(C)c3)c2)ccc1Cl (stereo not shown) [Example 26, 1-({5′-[1-(4-Chloro-3-methyl-phenyl)-ethylamino]-2′-fluoro-3,5-dimethyl-biphenyl-4-carbonyl}-amino)-cyclopropanecarboxylic acid] | 12.9 |
| 1 | Cc1cc([C@@H](C)Nc2cccc(-c3cc(C)c(C(=O)N(C)C4(C(=O)O)CC4)c(C)c3)c2)ccc1Cl [Example 81, 1-({3′-[(R)-1-(4-Chloro-3-methyl-phenyl)-ethylamino]-3,5-dimethyl-biphenyl-4-carbonyl}-methyl-amino)-cyclopropanecarboxylic acid] | 15.4 |
| 2 | Cc1cc(C(C)(C)Nc2cccc(-c3cc(C)c(C(=O)N(C)[C@@H](C)C(=O)O)c(C)c3)c2)ccc1Cl [Example 83, (S)-2-({3′-[1-(4-Chloro-3-methyl-phenyl)-1-methyl-ethylamino]-3,5-dimethyl-biphenyl-4-carbonyl}-methyl-amino)-propionic acid] | 15.2 |
| 2 | Cc1cc(C(C)(C)Nc2cccc(-c3cc(C)c(C(=O)NC4(C(=O)O)CC4)c(C)c3)c2)ccc1Cl [Example 84, 1-({3′-[1-(4-Chloro-3-methyl-phenyl)-1-methyl-ethylamino]-3,5-dimethyl-biphenyl-4-carbonyl}-amino)-cyclopropanecarboxylic acid] | 18.6 |
| 1 | Cc1cc([C@@H](C)Nc2cccc(-c3cc(C)c(C(=O)NC4(C(=O)O)CC4)c(C)c3)c2)cc(C)c1Cl [Example 99, 1-({3′-[(R)-1-(4-Chloro-3,5-dimethyl-phenyl)-ethylamino]-3,5-dimethyl-biphenyl-4-carbonyl}-amino)-cyclopropanecarboxylic acid] | 15.5 |
| 1 | Cc1cc([C@@H](C)Nc2cccc(-c3cc(C)c(C(=O)N[C@@H](C)C(=O)O)c(C)c3)c2)cc(C)c1Cl [Example 100, (S)-2-({3′-[(R)-1-(4-Chloro-3,5-dimethyl-phenyl)-ethylamino]-3,5-dimethyl-biphenyl-4-carbonyl}-amino)-propionic acid] | 20.9 |
| 2 | Cc1cc([C@H](Nc2cccc(-c3cc(C)c(C(=O)N[C@@H](C)C(=O)O)c(C)c3)c2)C(F)(F)F)ccc1Cl [Example 106, (S)-2-({3′-[(S)-1-(4-Chloro-3-methyl-phenyl)-2,2,2-trifluoro-ethylamino]-3,5-dimethyl-biphenyl-4-carbonyl}-amino)-propionic acid] | 10.9 |
| 2 | CC[C@@H](Nc1cccc(-c2cc(C)c(C(=O)NC3(C(=O)O)CC3)c(C)c2)c1)c1ccc(Cl)c(C)c1 [Example 109, 1-({3′-[(R)-1-(4-Chloro-3-methyl-phenyl)-propylamino]-3,5-dimethyl-biphenyl-4-carbonyl}-amino)-cyclopropanecarboxylic] | 19.1 |

— US20100168079A1 (priority 2008, published 2010)
